In US7662576B2, “Method for identifying ester coolers” (International Flavors & Fragrances Inc., priority 2007, dated 2010):
“Also recorded” adds a separate entry of the source.

How the values were obtained:
[1] = cited from earlier work; for Relative Cooling Strengths: compared to (−)-Menthol at 100, source Erman (2003); for relative cooling strength: with respect to WS-3 at 10.0, U.S. Patent Application No. 20050265930
TRPA1 = settings: literature; cited from earlier work
TRPM8 [2] = target: TRPM8 (Homo sapiens, UniProt Q7Z2W7); experiment: TRPM8 FLIPR analysis (calcium, Fluo4NW); format: cell-based; settings: for response of TRPM8 channel / comparison of TRPM8 and TRPA1 response: FLIPR; for response of TRPM8 channel: result in words; for temporal response: FIG. 2; for comparison of TRPM8 and TRPA1 response: TRPM8 versus TRPA1
Protocol: (§1) Materials. Fluo4NW solution was prepared by solubilizing one Fluo4NW bottle (Molecular Probes #F36206, component A) in 16 mL of Tyrode buffer (pH 7.4, 130 mM NaCl, 5 mM KCl, 2 mM CaCl2, 1 mM MgCl2, 5 mM NaHCO3, 20 mM HEPES). To the resulting solution was then added 100 μL of water-soluble probenecid (Molecular Probes #F36206, component B).
(§2) Cell Preparation. Cells were trypsinized and 10,000 cells were dispensed per well in poly-lysine-coated, black, clear-bottom 384-well plates (35 μL/well in DMEM without antibiotics). Cells were incubated for 24 hours at 37° C. in 5% CO2. The medium was completely eliminated and 20 (TRPA1) or 40 (TRPM8) μL/well of Fluo4NW solution was added to the plates. Cells were incubated for 1 hour at room temperature protected from light. Two addition kinetic measurements were recorded on the instrument for 7.5 (TRPA1) or 15 (TRPM8) minutes.

TRPM8 [3] = target: TRPM8 (Mus musculus, UniProt Q8R4D5); settings: Behrendt et al. (2004); cited from earlier work
human TRPA1 = target: T1, human TRPA1 (Homo sapiens, UniProt O75762); experiment: TRPA1 FLIPR analysis (calcium, Fluo4NW) in TREX FLP-IN HEK 293 cells expressing TRPA1; format: cell-based; settings: result in words
T1 construct: expressed in transfected cells
Protocol: Preferred assays to measure TRPA1 channel activity are cell-based assays that utilize cells loaded with ion or voltage-sensitive dyes to report TRPA1 activation. By way of illustration, an inducible TRPA1 cell line was created by stably introducing TRPA1 into TREX-FLPN cells (INVITROGEN). […] In this assay, cells were incubated with a suitable flouroscent dye. […] After obtaining a baseline, various cooling compounds were added and fluorescence measured for several minutes.
as §1, §2
NotI and XhoI restriction sites were also added to the ends to facilitate cloning into expression vectors.
The TRPA1 cDNA was cloned into two expression vectors, pcDNA5/FRT and pcDNA5/FRT/TO (INVITROGEN), using the NotI and XhoI sites. The former vector allows for constitutive expression in mammalian cells the latter for inducible expression in same. Restriction digests, ligations and transformations were performed using routine molecular biological techniques, wherein restriction enzymes were obtained from New England Biolabs, a rapid ligation kit from Roche and competent cells (Max Efficiency DH5 t1 phage-resistant) from INVITROGEN. […]

mouse TRPA1 channel = mouse TRPA1 channel (Mus musculus, UniProt Q8BLA8); settings: literature; cited from earlier work
mouse TRPA1 channel, sequence (Q8BLA8 whole entry): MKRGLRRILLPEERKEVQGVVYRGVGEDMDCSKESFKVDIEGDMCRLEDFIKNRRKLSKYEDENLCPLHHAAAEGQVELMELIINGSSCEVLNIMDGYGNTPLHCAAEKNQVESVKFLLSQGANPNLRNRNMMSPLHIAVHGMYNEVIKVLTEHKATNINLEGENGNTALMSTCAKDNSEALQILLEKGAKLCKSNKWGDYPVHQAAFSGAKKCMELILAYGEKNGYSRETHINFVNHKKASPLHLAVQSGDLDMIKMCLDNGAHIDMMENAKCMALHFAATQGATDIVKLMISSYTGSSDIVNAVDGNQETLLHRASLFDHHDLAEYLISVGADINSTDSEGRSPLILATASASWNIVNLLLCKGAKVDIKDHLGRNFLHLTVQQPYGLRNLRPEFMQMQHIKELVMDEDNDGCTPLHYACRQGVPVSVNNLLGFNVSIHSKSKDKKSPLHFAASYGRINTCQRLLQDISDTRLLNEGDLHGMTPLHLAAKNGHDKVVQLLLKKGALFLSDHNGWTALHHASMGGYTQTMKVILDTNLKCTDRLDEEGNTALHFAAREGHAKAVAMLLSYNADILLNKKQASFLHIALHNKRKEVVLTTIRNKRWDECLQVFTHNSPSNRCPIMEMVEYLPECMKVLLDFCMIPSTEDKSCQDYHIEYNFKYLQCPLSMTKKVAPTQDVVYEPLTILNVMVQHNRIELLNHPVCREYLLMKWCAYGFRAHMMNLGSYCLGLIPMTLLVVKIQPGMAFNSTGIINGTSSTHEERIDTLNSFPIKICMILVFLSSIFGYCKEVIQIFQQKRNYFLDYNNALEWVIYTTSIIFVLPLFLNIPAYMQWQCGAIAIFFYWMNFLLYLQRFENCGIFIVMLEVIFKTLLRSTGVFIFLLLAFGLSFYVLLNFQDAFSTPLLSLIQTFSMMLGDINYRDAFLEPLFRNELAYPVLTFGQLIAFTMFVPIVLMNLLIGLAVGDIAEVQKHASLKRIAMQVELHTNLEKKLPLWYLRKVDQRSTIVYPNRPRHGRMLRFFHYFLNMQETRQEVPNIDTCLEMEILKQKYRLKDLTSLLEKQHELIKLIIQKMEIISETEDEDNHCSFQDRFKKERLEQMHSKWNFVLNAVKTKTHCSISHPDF

T1 sequence (O75762 whole entry): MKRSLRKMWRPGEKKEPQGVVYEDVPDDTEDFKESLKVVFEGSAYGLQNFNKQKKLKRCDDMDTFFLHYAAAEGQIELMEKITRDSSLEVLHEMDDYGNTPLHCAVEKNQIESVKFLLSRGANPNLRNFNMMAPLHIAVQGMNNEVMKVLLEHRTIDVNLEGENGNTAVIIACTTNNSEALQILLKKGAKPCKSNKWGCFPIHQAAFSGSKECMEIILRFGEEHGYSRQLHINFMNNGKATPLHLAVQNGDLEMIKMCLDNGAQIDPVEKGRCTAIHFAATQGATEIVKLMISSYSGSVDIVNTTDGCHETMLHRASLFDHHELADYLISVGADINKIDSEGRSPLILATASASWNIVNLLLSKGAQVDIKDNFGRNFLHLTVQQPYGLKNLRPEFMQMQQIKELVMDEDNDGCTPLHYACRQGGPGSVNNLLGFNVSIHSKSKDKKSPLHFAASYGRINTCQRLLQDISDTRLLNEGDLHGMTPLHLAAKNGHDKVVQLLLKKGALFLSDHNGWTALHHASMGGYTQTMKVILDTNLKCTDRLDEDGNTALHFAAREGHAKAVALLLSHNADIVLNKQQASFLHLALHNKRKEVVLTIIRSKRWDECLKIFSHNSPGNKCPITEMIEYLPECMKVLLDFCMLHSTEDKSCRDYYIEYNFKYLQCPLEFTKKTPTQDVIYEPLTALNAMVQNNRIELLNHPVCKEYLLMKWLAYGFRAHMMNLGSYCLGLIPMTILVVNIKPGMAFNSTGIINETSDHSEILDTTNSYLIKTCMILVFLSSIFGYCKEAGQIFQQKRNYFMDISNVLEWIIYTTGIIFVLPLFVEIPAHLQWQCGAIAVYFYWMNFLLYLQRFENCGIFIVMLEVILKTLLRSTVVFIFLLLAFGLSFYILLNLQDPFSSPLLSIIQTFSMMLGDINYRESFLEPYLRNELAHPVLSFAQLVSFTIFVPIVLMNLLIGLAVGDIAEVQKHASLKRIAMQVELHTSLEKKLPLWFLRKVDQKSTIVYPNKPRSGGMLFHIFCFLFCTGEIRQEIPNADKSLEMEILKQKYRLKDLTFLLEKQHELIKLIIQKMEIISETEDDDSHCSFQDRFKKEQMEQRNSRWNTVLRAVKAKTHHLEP
TRPM8 (Homo sapiens, UniProt Q7Z2W7), sequence (Q7Z2W7 whole entry, species assumed): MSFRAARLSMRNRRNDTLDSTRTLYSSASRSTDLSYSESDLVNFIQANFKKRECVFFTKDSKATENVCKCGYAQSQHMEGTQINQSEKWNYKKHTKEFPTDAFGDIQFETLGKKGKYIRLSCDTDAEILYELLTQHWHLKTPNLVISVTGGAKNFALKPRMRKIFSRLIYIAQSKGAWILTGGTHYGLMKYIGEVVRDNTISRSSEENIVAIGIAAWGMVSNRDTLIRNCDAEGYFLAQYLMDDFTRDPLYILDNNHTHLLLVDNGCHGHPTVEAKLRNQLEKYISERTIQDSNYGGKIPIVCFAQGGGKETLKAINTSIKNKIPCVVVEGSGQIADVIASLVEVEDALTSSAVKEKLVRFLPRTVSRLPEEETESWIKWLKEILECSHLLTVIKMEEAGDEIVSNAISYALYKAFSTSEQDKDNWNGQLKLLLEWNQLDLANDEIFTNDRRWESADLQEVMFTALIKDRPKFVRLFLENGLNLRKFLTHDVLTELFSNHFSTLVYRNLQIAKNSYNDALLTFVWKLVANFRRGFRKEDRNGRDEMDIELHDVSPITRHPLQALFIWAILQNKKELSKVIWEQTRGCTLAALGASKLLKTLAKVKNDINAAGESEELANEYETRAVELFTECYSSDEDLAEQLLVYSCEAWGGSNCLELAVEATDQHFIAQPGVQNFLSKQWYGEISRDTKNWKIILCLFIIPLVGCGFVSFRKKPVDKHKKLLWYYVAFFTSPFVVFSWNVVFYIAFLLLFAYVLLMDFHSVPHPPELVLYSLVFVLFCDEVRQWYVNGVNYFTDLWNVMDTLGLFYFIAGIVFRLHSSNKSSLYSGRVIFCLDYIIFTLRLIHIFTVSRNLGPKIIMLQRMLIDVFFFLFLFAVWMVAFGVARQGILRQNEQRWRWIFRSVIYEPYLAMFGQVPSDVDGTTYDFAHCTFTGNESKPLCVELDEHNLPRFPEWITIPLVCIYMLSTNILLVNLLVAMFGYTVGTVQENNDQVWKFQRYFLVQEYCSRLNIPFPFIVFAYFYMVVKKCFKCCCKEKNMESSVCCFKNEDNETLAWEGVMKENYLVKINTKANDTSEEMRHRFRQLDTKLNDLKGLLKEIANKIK
TRPM8 (Mus musculus, UniProt Q8R4D5), sequence (Q8R4D5 whole entry): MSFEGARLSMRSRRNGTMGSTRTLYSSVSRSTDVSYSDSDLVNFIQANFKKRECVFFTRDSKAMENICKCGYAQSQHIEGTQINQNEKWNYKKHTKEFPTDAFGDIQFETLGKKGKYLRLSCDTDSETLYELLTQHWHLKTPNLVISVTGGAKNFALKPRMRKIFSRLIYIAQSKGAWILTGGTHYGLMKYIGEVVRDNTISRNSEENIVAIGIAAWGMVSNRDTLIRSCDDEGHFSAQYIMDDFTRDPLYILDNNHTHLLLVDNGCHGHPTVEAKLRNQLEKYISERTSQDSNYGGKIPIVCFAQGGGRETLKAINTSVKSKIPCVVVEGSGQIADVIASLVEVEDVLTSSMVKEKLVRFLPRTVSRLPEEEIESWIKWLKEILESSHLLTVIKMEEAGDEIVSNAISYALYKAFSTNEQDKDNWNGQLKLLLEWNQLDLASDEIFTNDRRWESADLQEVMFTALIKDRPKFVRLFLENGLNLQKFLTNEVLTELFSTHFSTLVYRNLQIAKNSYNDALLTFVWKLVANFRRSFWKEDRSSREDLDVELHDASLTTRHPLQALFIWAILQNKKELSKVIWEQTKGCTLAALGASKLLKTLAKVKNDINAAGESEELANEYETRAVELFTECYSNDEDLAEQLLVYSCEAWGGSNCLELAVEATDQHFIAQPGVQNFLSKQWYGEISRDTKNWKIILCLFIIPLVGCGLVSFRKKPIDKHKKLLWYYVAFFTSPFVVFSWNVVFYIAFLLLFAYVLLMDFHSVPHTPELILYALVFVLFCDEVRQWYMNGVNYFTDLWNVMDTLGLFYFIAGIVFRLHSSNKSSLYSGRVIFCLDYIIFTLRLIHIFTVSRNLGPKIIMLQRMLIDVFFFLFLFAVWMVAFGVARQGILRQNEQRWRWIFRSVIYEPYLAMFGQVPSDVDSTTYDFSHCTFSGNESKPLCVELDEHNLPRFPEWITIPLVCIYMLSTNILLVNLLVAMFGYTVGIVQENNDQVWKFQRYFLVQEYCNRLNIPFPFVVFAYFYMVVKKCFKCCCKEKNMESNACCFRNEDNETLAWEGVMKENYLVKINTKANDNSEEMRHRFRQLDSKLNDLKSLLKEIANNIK

## 1-glyceryl p-menthane-3-carboxylate [WS-30]
[1]
  Relative Cooling Strengths: 22.5
  relative cooling strength: about 1.5

## CC(C)[C@@H]1CC[C@@H](C)C[C@H]1OCC(O)CO (mixture of isomers) [(2RS)-3-1-menthoxy)propane-1,2-diol]
[1]
  Relative Cooling Strengths: 22.5

## CC1CCC(C(C)C)C(O)C1 (single isomer, unassigned; (+)) [(+)-Menthol]
[1]
  Relative Cooling Strengths: 27

## CC1CCC(C(C)C)C(O)C1 (single isomer, unassigned; (-)) [(−)-Menthol]
[1]
  Relative Cooling Strengths: 100

## CC1CCC(C(C)C)C(O)C1 (single isomer, unassigned; (-)) [(−)-Neomenthol]
[1]
  Relative Cooling Strengths: 3

## CS(=O)(=O)SCCN [(2-aminoethyl)methanethiosulfonate]
TRPA1
  activation of TRPA1: bind and activate TRPA1

## CC(C)[C@@H]1CC[C@@H](C)C[C@H]1OC[C@H](O)CO [(2R)-3-1-menthoxy)propane-1,2-diol]
[1]
  Relative Cooling Strengths: 15.8

## CC(C)[C@@H]1CC[C@@H](C)C[C@H]1OC[C@@H](O)CO [(2S)-3-1-menthoxy)propane-1,2-diol]
[1]
  Relative Cooling Strengths: 39.5

## CC(C)[C@@H]1CC[C@H](C)C[C@H]1O [(+)-Isomenthol]
[1]
  Relative Cooling Strengths: 11

## CC(C)[C@@H]1CC[C@@H](C)C[C@@H]1O [(+)-Neomenthol]
[1]
  Relative Cooling Strengths: 32

## CC(C)[C@H]1CC[C@@H](C)C[C@@H]1O [(−)-Isomenthol]
[1]
  Relative Cooling Strengths: 3

## CC(C)[C@@H]1CC[C@@H](C)C[C@H]1[O+](C)C(=O)CCCC(=O)O [Cooler 2]
TRPM8 [2]
  response of TRPM8 channel: did not respond well

## CC1CCC(C(C)C)C(OC(=O)C(C)O)C1 (stereo not shown) [Frescolat MGA, menthyl lactate]
[1]
  Relative Cooling Strengths: 41

## CC(C)[C@@H]1CC[C@@H](C)C[C@H]1O [Menthol]
TRPM8 [2]; TRPM8 FLIPR
  temporal response: quick response with deterioration over time

## CC1CCC(C(C)C)C(OC(=O)C(C)O)C1 (stereo not shown) [Menthyl Lactate]
TRPM8 [2]; TRPM8 FLIPR
  temporal response: quick response with a quick loss of signal
TRPM8 [2]; TRPM8 FLIPR, read-out: response relative to the maximal response of amide coolers
  Emax: ~50%
[1]
  relative cooling strength: about 2.9
TRPM8 [3]
  response relative to the level of menthol: 50%

## CNC(=O)C1C(C)CCCC1(C)C (stereo not shown) [N,2,2,6-Tetramethylcyclohexane-1-carboxamide]
[1]
  relative cooling strength: about 1.0

## CC1CCC(C(C)(C)O)C(O)C1 (stereo not shown) [PMD 38, p-menthane-3,8-diol]
[1]
  Relative Cooling Strengths: 11

## CC(=O)CC(=O)OC1CC(C)CCC1C(C)C (stereo not shown) [Ultracool 7]
TRPM8 [2]
  response of TRPM8 channel: did not respond well; also recorded: no response
Human TRPA1
  response of TRPA1: responded to a wide range of concentrations

## CCNC(=O)C1CC(C)CCC1C(C)C (stereo not shown) [WS-3, N-ethyl-p-menthane-3-carboxamide]
TRPM8 [2]
  comparison of TRPM8 and TRPA1 response: TRPM8 responding better
  response of TRPM8 channel: responded
Human TRPA1
  response of TRPA1: responded
[1]
  Relative Cooling Strengths: 150
  relative cooling strength: 10.0

## CC1CCC(C(C)C)C(C(=O)OCCO)C1 (stereo not shown) [WS-4, Ethyleneglycol p-menthane-3-carboxylate]
[1]
  Relative Cooling Strengths: 23

## COc1ccc(NC(=O)C2CC(C)CCC2C(C)C)cc1 (stereo not shown) [WS-12, N-(4-methoxyphenyl)-p-menthane-3-carboxamide]
[1]
  Relative Cooling Strengths: 150

## CC1CCC(C(C)C)C(C(=O)NC(C)(C)C)C1 (stereo not shown) [WS-14, N-t-butyl-p-menthane-3-carboxamide]
[1]
  Relative Cooling Strengths: 75
  relative cooling strength: about 5.0

## CNC(=O)C(C)(C(C)C)C(C)C [WS-23, 2-Isopropyl-N,2,3-trimethylbutyramide]
[1]
  Relative Cooling Strengths: 75
  relative cooling strength: about 5.0

## O=CC=Cc1ccccc1 [cinnamaldehyde]
Mouse TRPA1 channel
  activation of mouse TRPA1 channel: activated

## C=CCc1ccc(O)c(OC)c1 [eugenol]
Mouse TRPA1 channel
  activation of mouse TRPA1 channel: activated

## CCCCC[C@H](O)CC(=O)CCc1ccc(O)c(OC)c1 [gingerol]
Mouse TRPA1 channel
  activation of mouse TRPA1 channel: activated

## NC(=O)CI [iodoacetamide]
TRPA1
  activation of TRPA1: bind and activate TRPA1

## COC(=O)c1ccccc1O [methyl salicylate]
Mouse TRPA1 channel
  activation of mouse TRPA1 channel: activated

## CC(C)[C@@H]1CC[C@@H](C)C[C@H]1OC(=O)CCCC(=O)O [monomenthyl glutarate]
[1]
  relative cooling strength: about 3.5

## C=CCN=C=S [mustard oil, allyl isothiocyanate]
TRPA1
  activation of TRPA1: activates TRPA1

## (+)-Neoisomenthol
[1]
  Relative Cooling Strengths: 3

## (−)-Neoisomenthol
[1]
  Relative Cooling Strengths: 13

## (−)-isopulegol [Coolact P]
[1]
  Relative Cooling Strengths: 25

## Ethyl 3-(p-menthane-3-carboxamido)acetate [WS-5]
TRPM8 [2]
  comparison of TRPM8 and TRPA1 response: TRPM8 responding better
  response of TRPM8 channel: responded
Human TRPA1
  response of TRPA1: responded
[1]
  Relative Cooling Strengths: 400
  relative cooling strength: about 16.7
